The results in this text go back to PMC9571290, “Preliminary Structure–Activity Relationship Study of the MMV Pathogen Box Compound MMV675968 (2,4-Diaminoquinazoline) Unveils Novel Inhibitors of Trypanosoma brucei brucei” (Molecules, 2022).

Data set [1] deals with trypanosome plasma membrane. Briefly: plasma membrane integrity (SYBR Green). In kind it is cell-based, Trypanosoma brucei brucei. The settings on record: IC99, IC90, IC50, IC10; up to 120 min. Here is the method:
The plasma membrane is the first barrier protecting the cell from the external environment and therefore might represent an important challenge for compounds to exert their inhibitory action. Thus, compounds 7 and 10 were assessed for their ability to induce alterations in cell integrity as previously described with a modification consisting of using an SYBR green assay. The principle of this assay is based on the fact that upon treatment with membrane disruptors, trypanosomes with compromised plasma become fluorescent as a result of SYBR green entry and fixation to the exposed DNA. Practically, in a 96-well microtiter plate, 90 µL of trypanosome suspension (2 × 10^6 cells/mL/well) was preincubated with SYBR Green (2X) (Sigma Aldrich) for 15 min at 37 °C and 5% CO2 in darkness. […] The plate was then incubated at 37 °C on a Magelan Infinite M200 multiwell plate reader (Tecan), and fluorescence was further recorded every 5 min for up to 120 min at λex = 485 and λem = 538 nm. […] The results are expressed as the mean ± SD of two experiments carried out in duplicate after deducting the background signal (wells containing HMI-9 medium) and then used to plot the fluorescence counts versus time (min) graph.

In a further data set the test system is trypanosomes. Briefly: intracellular ROS production (DCFDA). The note with it: 120 min; versus untreated parasites. In kind it is cell-based, Trypanosoma brucei brucei. Here is the method:
The production of ROS was detected using a 2′,7′–dichlorofluorescein diacetate (DCFDA) probe (Sigma–Aldrich) as described by Rea et al.. […] DCFDA (100 µL, 5 µM) was then added to the parasites, and incubation was pursued for 15 min at 37 °C. Hydrogen peroxide (H2O2 0.1% v/v) was used as a positive control for maximal ROS production, and wells with untreated parasites were included as a negative control. Of note, DCFDA is cleaved by ROS to produce fluorescent 2′,7′-dichlorofluorescein (DCF), of which the fluorescence intensity was measured at λex = 485 nm and λem = 520 nm. Data obtained from duplicate readouts were used to determine the ROS production percentage relative to the positive control (100% Production). % ROS production = (OD Test/OD control(H2O2)) × 100

Take `COc1ccccc1NCc1ccc2nc(N)nc(N)c2c1` [Analog 7, 6-(((2-methoxyphenyl)amino)methyl)quinazoline-2,4-diamine]: the “effect on plasma membrane permeability” value in data set [1] is listed as “no impairment or a rather mild effect”. For the same molecule, in the data set with trypanosomes, the “change in ROS production” value is “no significant change”.
On to `Nc1nc(N)c2cc(CNc3cc(Cl)ccc3Cl)ccc2n1` [Analog 10, 6-(((2,5-dichlorophenyl)amino)methyl)quinazoline-2,4-diamine], for which the “effect on plasma membrane permeability” value in data set [1] was “no impairment or a rather mild effect”. In the data set on trypanosomes, the “change in ROS production” value is on record as “no significant change”.
